Laboratory results as given in US12337000B2, “Therapeutic modulators of the reverse mode of ATP synthase” (priority 2017, dated 2025).
Entries after “also recorded” stand apart in the source; their conditions may differ. Like-named read-outs stand apart in the source and are kept apart here.

Assays:
[1] = system: 59 cancer cell lines (NCI-60); test: NCI-60 one-dose in vitro assay; format: cell-based, human; conditions: for inhibition at 100 µM / inhibition at 10 µM: Homo sapiens; for inhibition at 10 µM: 48 hours, read-out: mean cancer growth inhibition, across all 59 cancer cell lines; for inhibition at 10 µM / anti-cancer activity (in words): 10 μM
Text: FIGS. 1, 2, 3, 4, 5, 6, 7, 8 show results from the NCI-60 one-dose in vitro assay at the Developmental Therapeutics Program (DTP), at the National Cancer Institute (NCI, Bethesda, MD, USA). Its protocol is well known to those of the art, and it tests the effect, if any, of a test compound on the growth/survivability of a cancer cell line as compared to the no compound control. […] However, a constant is that there is always representative cell lines from leukemia, melanoma and cancers of the lung, colon, brain, ovary, breast, prostate and kidney. In a one-dose NCI compound test report, NCI report a number for each cell line, which they call “Growth Percent”, which is its growth relative to the no-compound control, and relative to the time zero number of cells. This reported parameter allows detection of both growth inhibition (values between 0 and 100) and lethality (values less than 0). For example, an NCI “Growth Percent” value of 100 means no growth inhibition. Value of 40 means 60% growth inhibition. Value of 0 means no net growth over the course of the experiment. Value of −40 means 60% lethality. Value of −100 means all cells are dead. I don't present NCI one-dose data in this original format. Instead, if the NCI “Growth Percent” value for a cell is positive, it is manipulated: [100 minus this original NCI-60 “Growth Percent” data point], to yield the percentage “Growth Inhibition”. If the original NCI “Growth Percent” value for a cell is negative, it is made positive to be the percentage of original cancer cells (at time zero) killed: “Percentage Killed” {and in these cases, of course, all growth has been inhibited, so percentage “Growth Inhibition” is then specified to be 100% for this cancer cell line}. In my one-dose figures, “Growth Inhibition” (0-100%) is presented on the x-axis and, if applicable, “Percentage Killed” (0-100%) further along on the x-axis. The latter is applicable when there is not just cancer growth inhibition but a reduction in the number of cancer cells from the start time i.e. when the compound is not merely slowing cancer growth, but is actively reducing the number of cancer cells from the starting number. In cases where there is only growth inhibition, only “Growth inhibition” is presented on the x-axis.
NCI-60 tests are performed at a controlled temperature of 37° C..
To perform the anti-cancer testing reported: BMS-199264 hydrochloride was purchased from Sigma-Aldrich. BTB06584 was purchased from AdooQ Bioscience, Irvine, CA, USA. Compounds 19a (separated into 6a and 6b stereoisomers) and 31 were synthesized by reaction schemes disclosed herein. Almitrine dimesylate was purchased from Ak Scientific, Palo Alto, CA, USA.

[2] = system: 59 different cancer cell lines (NCI-60); test: NCI-60 five-dose in vitro assay; format: cell-based; conditions: Homo sapiens, read-out: mean GI50 of all 59 cell lines
Text: Results are from the NCI-60 five-dose in vitro assay at the Developmental Therapeutics Program (DTP), at the National Cancer Institute (NCI, Bethesda, MD, USA). […] These graphs are as outputted by the NCI but changed from colour to black and white. On the y-axis of each is the aforementioned “Growth Percent” parameter used by NCI, which is growth relative to the no-compound control, and relative to the time zero number of cells.

[3] = molecular target: T1, F1F0 ATP synthesis (Bos taurus, UniProt P00829+P19483); conditions: SMP assays, [5-8]; cited from earlier work
T1 construct: are from sub-mitochondrial (SMP) studies in [5-8]; from tissue; host or cells: sub-mitochondrial particles (SMPs)

[4] = system: ex vivo rat heart; conditions: 10 μM [11]; cited from earlier work
[5] = molecular target: forward mode of ATP synthase (Homo sapiens, UniProt P06576+P25705+P48047); conditions: [P4]; cited from earlier work
[6] = molecular target: reverse mode of ATP synthase (Homo sapiens, UniProt P06576+P25705+P48047); conditions: [P4]; cited from earlier work
[7] = In vivo mouse study of 6a and 6b, rectal temperature and survival at 22° C. room temperature; parameters: species or system Mus Musculus C57BL/6; conditions: for effect on rectal temperature (in words): in vivo, iv
Experimental: FIG. 15. In vivo study of compounds 6a and 6b, conducted at 22° C. room temperature. METHODOLOGY: 4 mice were used and in the presented table “Day” refers to the number of days since the 1st drug/vehicle dose on Day 1. Some experimental details: intravenous (IV) administration (tail vein), dosing volume=10 μl/g, solution (not suspension), sterilised (0.22 μm filter) vortexed vehicle=12.5% solutol, 12.5% ethanol, 75% water, IV solutions freshly prepared before injection except on days 22 and 39 when solutions prepared on previous dosing days were used (sub-optimal), Female Mus Musculus C57BL/6 strain, 6-8 weeks old at study start, mice sourced from Shanghai Lingchang Bio-Technology Co. Ltd, mice were observed/quarantined for a few days after arrival and before dosing, ad libitum Co^60 irradiation sterilized dry granule food & reverse osmosis autoclaved water, corn cob bedding, polysulfone individually ventilated cage (IVC, containing up to 5 animals): 325 mm×210 mm×180 mm, 12 hour light/dark cycle, 40-70% humidity, 20-26° C. room temperature, StudyDirector™ software (Studylog Systems, Inc. CA, USA) used to allocate/randomize control/treatment groups, animals marked by ear coding (notch), care and use of animals in accordance with the regulations of the Association for Assessment and Accreditation of Laboratory Animal Care (AAALAC), when recording rectal temperature: care was taken to ensure constant depth of probe insertion across different recordings, time was afforded for rectal probe temperature to equilibrate with rectal temperature, and time was afforded between recordings for probe temperature to reset.

[8] = Enantiomeric excess (ee) stability experiments; format: physicochemical; conditions: FIG. 16
Text: FIG. 16. The enantiomeric excess (ee) of 6a and 6b is […] in presented ee stability experiments. […] This ee instability in biological media is an unexpected result. This finding is componentry to the invention of this disclosure, as are any modifications to the structure of 6a or 6b to slow their ee erosion due to epimerization/racemization. The ee instability is unexpected because it runs contrary to theory. The 2nd order rate constant (kgb) for general-base catalysed racemization can be predicted for 6a and 6b by theory from (and its supplementary information, all incorporated by reference). Joined to the stereogenic carbon of 6a and 6b there is a phenyl group, alkyl and a guanidine group: ΣΔΔG(R1,R2,R3)=[…]=−36.2 kcal/mol. The value for the guanidine group (19.1) is not from but from one of its authors, Dr. Andrew Leach, by personal communication, who sourced it by quantum mechanical calculation with the Gaussian 03 software package. The cross-conjugation correction was not applied in this case because Dr. Leach wrote “I would not expect guanidine to be a conjugating group”. log(kgb)=−0.11*ΣΔΔG(R1,R2,R3)−9.81, ∴Kgb=0.00000148593 M^−1s^−1. This is not particularly fast. Racemization might occur faster for 6a and 6b in cells than predicted by theory because their high lipophibicity concentrates them in biological membranes. […]

[9] = molecular target: T2, F1F0 ATP hydrolase (Bos taurus, UniProt P00829+P19483); conditions: cited from earlier work; for IC50: [5-6], read-out: IC50 reverse mode of ATP synthase
T2 construct: from tissue; host or cells: sub-mitochondrial particles (SMPs)

[10] = system: 59 cancer cell lines (NCI-60); conditions: 10 μM, NCI-60 one-dose, NSC: 760347 in [16], cited from earlier work
[11] = system: HL-1 cardiac muscle cell line; conditions: 3 μM, HL-1 cells, data from [12]; cited from earlier work
[12] = Human pharmacokinetics of oral almitrine dimesylate; format: in vivo; conditions: human, plasma; single 200 mg oral dose, humans [121]; read-out: mean cmax plasma concentration
[13] = cited from earlier work
[14] = mice, intraperitoneal injection (IP); cited from earlier work
[15] = system: 59 different cancer cell lines (NCI-60); conditions: NCI-60 five-dose, from Table 1 of [30]; cited from earlier work
[16] = 1.9 g/kg intraperitoneal, 24.5 to 25° C. ambient temperature [100]; cited from earlier work
[17] = read-out: median cancer growth inhibition

CC1(C)Oc2ccc(S(=O)(=O)N3CCCCC3)cc2[C@@H](N(Cc2ncc[nH]2)c2ccc(Cl)cc2)[C@@H]1O [BMS-199264]
inhibition at 100 µM ([1]; read-out: Mean % cancer growth inhibition): > 100% | GI50 [2]: 3.9 µM | EC50 [3]: 18 µM | harm to normal cells (ex vivo rat heart) [4]: doesn't harm; also recorded: does not harm

CN1C(=O)C(Cc2ccc3ccccc3c2)N=C(c2ccc(O)cc2)c2cc(Cl)ccc21 (centres unmarked) [Bz-423]
EC50 [5]: 5.5 µM | EC50 [6]: 8.9 µM

N#Cc1cccc(C(=O)/N=C(\Nc2ccc(Cl)cc2)N[C@@H](Cn2ccnc2)c2ccc(Cl)cc2Cl)c1 [Compound 6a]
inhibition at 10 µM [1]: 57% | inhibition at 100 µM [1, 17]: > 79% | GI50 [2]: 0.666 µM | LD50 ([7]; female, C57BL/6, in vivo, mouse, IV): > 40 mg/kg | effect on rectal temperature (in words) ([7]; mouse): does not | enantiomeric excess (ee) stability [8]: stable | EC50 ([9]; SMP studies in [5-8], read-out: EC50 F1F0 ATP hydrolysis / hydrolase): > 100 µM | IC50 [9]: > 100 µM

N#Cc1cccc(C(=O)/N=C(\Nc2ccc(Cl)cc2)N[C@H](Cn2ccnc2)c2ccc(Cl)cc2Cl)c1 [Compound 6b]
inhibition at 10 µM [1]: 66% | inhibition at 100 µM [1, 17]: > 79% | GI50 [2]: 0.446 µM | time to death after IV injection ([7]; 20 mg/kg IV): ~210 min | survival time after IV injection ([7]; 40 mg/kg IV, found dead the next day): > 6 h | effect on rectal temperature (in words) ([7]; mouse): potently reduces rectal temperature | enantiomeric excess (ee) stability [8]: stable | IC50 [9]: 0.018 µM

CCN1CC(CCN2CCOCC2)C(c2ccccc2)(c2ccccc2)C1=O (centres unmarked) [Doxapram]
median % cancer growth inhibition [10]: −2.3% | mean % cancer growth inhibition ([10]; negative = growth promotion): −3.7%

CC[C@H]1/C=C/C=C/C[C@@H](C)[C@H](O)[C@@](C)(O)C(=O)[C@@H](C)[C@H](O)[C@@H](C)C(=O)[C@@H](C)[C@H](O)[C@@H](C)/C=C/C(=O)O[C@@H]2[C@H](C)[C@H](CC1)O[C@@]1(O[C@@H](C[C@@H](C)O)[C@@H](C)CC1=O)[C@H]2C [Oligomycin B]
change of O2 consumption [11]: −40%

C=CCNc1nc(NCC=C)nc(N2CCN(C(c3ccc(F)cc3)c3ccc(F)cc3)CC2)n1.CS(=O)(=O)O [almitrine dimesylate, 6-[4-[bis(4-fluorophenyl)methyl]piperazin-1-yl]-2-N,4-N-bis(prop-2-enyl)-1,3,5-triazine-2,4-diamine methanesulfonic acid]
anti-cancer activity (in words) [1]: Anti-cancer activity | anti-cancer activity (in words) ([1]; listed as almitrine dismesylate): greater anti-cancer activity than carboplatin | Cmax [12]: 600 nM | plasma [almitrine] ([13]; 24 hours after 200 mg oral dose [121]): ~50 ng/mL | oral bioavailability ([13]; humans [121]): 70% | mean cmax plasma concentration ([13]; single 150 mg oral dose, humans [123]): 379 ng/mL | mean cmax plasma concentration ([13]; single 200 mg oral dose, humans [121]): 286 ng/mL | LD50 [14]: 370 mg/kg

N.N.[Cl][Pt][Cl] [cisplatin]
GI50 [15]: 1.4 µM

CCO [ethanol]
reduction of body temperature [16]: 1.6 °C
